Measurements as given in patent publication US7687651B2, “Method for the preparation of trans-or cis-diammoniumdichlorodihydroxoplatinum(IV) and the use thereof in the production of pharmaceutical active substances” (priority 2003, dated 2010).
Each block holds one compound with its values, some of them ahead of it.

Tests used:
Assay type in all cases: cell-based, human
HOS Osteosarcoma = experiment: Growth inhibition test on HOS cells; conditions: Table 1
Description: (§1) Growth inhibition tests on various human cell lines show the different activities of cisplatin, cis-oxoplatin and oxaliplatin. […] The following Table illustrates the results produced with cisplatin, oxoplatin, carboplatin and oxaliplatin (the values specified are IC50 values in μg/ml, i.e., the concentration where 50% of the cells survive, nd=not determined; res=resistant=non-sensitive or IC50 value cannot be determined at a concentration of up to 40 μg/ml; IC=inhibition concentration).

SaOS Osteosarcoma = experiment: Growth inhibition test on SaOS cells; conditions: Table 1
Description: as §1

PC3 Prostate = experiment: Growth inhibition test on PC3 cells; conditions: for IC50: PC3 Prostate; for % Survival: PC3 cells
Description: as §1

M607 Melanoma = experiment: Growth inhibition test on M607 cells; conditions: Table 1
Description: as §1

M518 Melanoma = experiment: Growth inhibition test on M518 cells; conditions: Table 1
Description: as §1

Me128 Melanoma = experiment: Growth inhibition test on Me128 cells; conditions: Table 1
Description: as §1

JVSO Melanoma = experiment: Growth inhibition test on JVSO cells; conditions: Table 1
Description: as §1

Panc1 Pancreatic cancer = experiment: Growth inhibition test on Panc1 cells; conditions: Table 1
Description: as §1

BxPC3 Pancreatic cancer = experiment: Growth inhibition test on BxPC3 cells
Description: (§2) The effect of cis-oxoplatin Ca and cis-oxoplatin was compared on 10 cell lines (Table 4).
(§3) (IC50 values specified in μg/ml; the test was performed as a formazan test).

[1] = tested on: MiaPaCa2 Pancreatic cancer; experiment: Growth inhibition test on MiaPaCa2 cells; conditions: Table 1
Description: as §1

HCT8 Colon carcinoma = experiment: Growth inhibition test on HCT8 cells; conditions: Table 1
Description: as §1

HT29 Colon carcinoma = experiment: Growth inhibition test on HT29 cells
Description: as §2, §3

HCT-15 Colon carcinoma = experiment: Growth inhibition test on HCT-15 cells; conditions: Table 1
Description: as §1

A498 Renal cells = experiment: Growth inhibition test on A498 cells; conditions: Table 1
Description: as §1

C320DM Colon carcinoma = experiment: Growth inhibition test on C320DM cells; conditions: Table 1
Description: as §1

Colo205 Colon carcinoma = experiment: Growth inhibition test on Colo205 cells
Description: as §2, §3

CC1227 Colon carcinoma = experiment: Growth inhibition test on CC1227 cells; conditions: Table 1
Description: as §1

MCF-7 Breast cancer = experiment: Growth inhibition test on MCF-7 cells; conditions: Table 1
Description: as §1

T47D Breast cancer = experiment: Growth inhibition test on T47D cells
Description: as §2, §3

SK-OV3 Ovarian cancer = experiment: Growth inhibition test on SK-OV3 cells; conditions: Table 2
Description: as §1

U 373 MG Astrocytoma = experiment: Growth inhibition test on U 373 MG cells; conditions: Table 2
Description: as §1

SK-OV4 Ovarian cancer = experiment: Growth inhibition test on SK-OV4 cells
Description: as §1

CaCo-2 Colon = experiment: Growth inhibition test on CaCo-2 cells; conditions: for IC50: CaCo-2 Colon
Description: as §2, §3

CRO2B Carcinoid = experiment: Growth inhibition test on CRO2B cells; conditions: for IC50: CRO2B Carcinoid
Description: as §2, §3

Du145 Prostate = experiment: Growth inhibition test on Du145 cells; conditions: for IC50: Du145 Prostate
Description: as §2, §3

SW480 Colon = experiment: Growth inhibition test on SW480 cells; conditions: for IC50: SW480 Colon
Description: as §2, §3

SIM Sarcoma = experiment: Growth inhibition test on SIM cells
Description: as §1
What is seen primarily in children are leukemias, neuroblastomas and Ewing's sarcoma/peripheral neuroectodermal tumors (group of the Ewing family of tumors=EFT). The investigated tumor cell lines include three EFTs (EW-7, SIM and KAL), as well as two neuroblastoma cell lines (NB: LAN1 and LAN5; Los Angeles neuroblastoma=LAN) (see Table 3).

[2] = tested on: HT29, SW480, SK-OV4, PC3, SIM, CaCO-2, DU145 and CRO2B cells; experiment: Growth inhibition, IC50 over eight cell lines of Table 2; conditions: CaCO-2, DU145, CRO2B
Description: as §1
The activities differ according to the cell line.

MDA-MB-435 Breast = experiment: Formazan test on MDA-MB-435 cells; conditions: Table 4
Description: as §2, §3

BT20 Breast = experiment: Formazan test on BT20 cells; conditions: Table 4
Description: as §2, §3

10 cell lines (Table 4) = experiment: Formazan test, IC50 mean value for all cell lines of Table 4; conditions: mean over the 10 cell lines of Table 4
Description: as §2, §3

[3] = Table 1, BxPC3 Pancreatic cancer
[4] = Table 1, Colo205 Colon carcinoma

Compound: N.N.O=C([O-])C1(C(=O)[O-])CCC1.[Pt+2] [Carboplatin, carboplatin]
- IC50 (HOS Osteosarcoma): 5 µg/mL
- IC50 (SaOS Osteosarcoma): 5 µg/mL
- IC50 (PC3 Prostate; Table 1): 10 µg/mL
- IC50 (M607 Melanoma): 10 µg/mL
- IC50 (M518 Melanoma): res (res=resistant=non-sensitive or IC50 value cannot be determined at a concentration of up to 40 μg/ml)
- IC50 (Me128 Melanoma): 10 µg/mL
- IC50 (JVSO Melanoma): res (res=resistant=non-sensitive or IC50 value cannot be determined at a concentration of up to 40 μg/ml)
- IC50 (Panc1 Pancreatic cancer): 20 µg/mL
- IC50 (BxPC3 Pancreatic cancer; [3]): 10 µg/mL
- IC50 [1]: 5 µg/mL
- IC50 (HCT8 Colon carcinoma): res (res=resistant=non-sensitive or IC50 value cannot be determined at a concentration of up to 40 μg/ml)
- IC50 (HT29 Colon carcinoma; Table 1, HT29 Colon carcinoma): 20 µg/mL
- IC50 (HCT-15 Colon carcinoma): res (res=resistant=non-sensitive or IC50 value cannot be determined at a concentration of up to 40 μg/ml)
- IC50 (A498 Renal cells): res (res=resistant=non-sensitive or IC50 value cannot be determined at a concentration of up to 40 μg/ml)
- IC50 (C320DM Colon carcinoma): 10 µg/mL
- IC50 (Colo205 Colon carcinoma; [4]): res (res=resistant=non-sensitive or IC50 value cannot be determined at a concentration of up to 40 μg/ml)
- IC50 (CC1227 Colon carcinoma): res (res=resistant=non-sensitive or IC50 value cannot be determined at a concentration of up to 40 μg/ml)
- IC50 (MCF-7 Breast cancer): res (res=resistant=non-sensitive or IC50 value cannot be determined at a concentration of up to 40 μg/ml)

Compound: N.N.[Cl][Pt][Cl] [Cisplatin, cisplatin]
- IC50 (PC3 Prostate; Table 1): res (res=resistant=non-sensitive or IC50 value cannot be determined at a concentration of up to 40 μg/ml)
- IC50 (M607 Melanoma): 0.3 µg/mL
- IC50 (M518 Melanoma): 40 µg/mL
- IC50 (Me128 Melanoma): 0.3 µg/mL
- IC50 (JVSO Melanoma): 40 µg/mL
- IC50 (Panc1 Pancreatic cancer): 1 µg/mL
- IC50 (BxPC3 Pancreatic cancer; [3]): 0.6 µg/mL
- IC50 [1]: 1.5 µg/mL
- IC50 (HCT8 Colon carcinoma): 5 µg/mL
- IC50 (HT29 Colon carcinoma; Table 1, HT29 Colon carcinoma): 0.3 µg/mL
- IC50 (HCT-15 Colon carcinoma): 0.3 µg/mL
- IC50 (A498 Renal cells): 1 µg/mL
- IC50 (C320DM Colon carcinoma): 0.3 µg/mL
- IC50 (Colo205 Colon carcinoma; [4]): 10 µg/mL
- IC50 (CC1227 Colon carcinoma): 0.3 µg/mL
- IC50 (MCF-7 Breast cancer): 2.5 µg/mL
- IC50 (T47D Breast cancer; Table 1, T47D Breast cancer): 0.3 µg/mL

Compound: O=C1[O][Pt]2([NH][C@@H]3CCCC[C@H]3[NH]2)[O]C1=O [Oxaliplatin, oxaliplatin]
- IC50 (M607 Melanoma): 10 µg/mL
- IC50 (M518 Melanoma): res (res=resistant=non-sensitive or IC50 value cannot be determined at a concentration of up to 40 μg/ml)
- IC50 (Me128 Melanoma): 10 µg/mL
- IC50 (JVSO Melanoma): res (res=resistant=non-sensitive or IC50 value cannot be determined at a concentration of up to 40 μg/ml)
- IC50 (Panc1 Pancreatic cancer): 5 µg/mL
- IC50 (BxPC3 Pancreatic cancer; [3]): 10 µg/mL
- IC50 [1]: 5 µg/mL
- IC50 (HCT8 Colon carcinoma): res (res=resistant=non-sensitive or IC50 value cannot be determined at a concentration of up to 40 μg/ml)
- IC50 (HT29 Colon carcinoma; Table 1, HT29 Colon carcinoma): 20 µg/mL
- IC50 (HCT-15 Colon carcinoma): 10 µg/mL
- IC50 (A498 Renal cells): 10 µg/mL
- IC50 (C320DM Colon carcinoma): 0.15 µg/mL
- IC50 (Colo205 Colon carcinoma; [4]): 1 µg/mL
- IC50 (CC1227 Colon carcinoma): 0.2 µg/mL
- IC50 (MCF-7 Breast cancer): res (res=resistant=non-sensitive or IC50 value cannot be determined at a concentration of up to 40 μg/ml)
- IC50 (T47D Breast cancer; Table 1, T47D Breast cancer): 0.1 µg/mL

Compound: [NH2][Pt]([NH2])([O-])([O-])([Cl])[Cl].[Na+].[Na+] [cis-Oxoplatin sodium salt, cis-diammoniumdichlorodihydroxoplatinum(IV) Disodium Salt]
- more effective than cis-oxoplatin (PC3 Prostate; PC3, Na salt versus cis-oxoplatin): about 30%
- % Survival (PC3 Prostate; Conc. 5 μg/ml): 109.3 ± 9.1%
- % Survival (PC3 Prostate; Conc. 10 μg/ml): 77.7 ± 2.4%
- % Survival (PC3 Prostate; Conc. 20 μg/ml): 33.2 ± 3.0%
- % Survival (PC3 Prostate; Conc. 40 μg/ml): 0.6 ± 0.5%
- IC50 (PC3 Prostate; Table 2): 5.3 µg/mL
- IC50 (BxPC3 Pancreatic cancer; Table 2, BxPC3 Pancreatic carcinoma): 12 µg/mL
- more effective than cis-oxoplatin (HT29 Colon carcinoma; HT29, Na salt versus cis-oxoplatin): about 70%
- IC50 (HT29 Colon carcinoma; Table 2, HT29 Colon): 4.55 µg/mL
- IC50 (T47D Breast cancer; Table 2, T47D Breast cancer): 18 µg/mL
- IC50 (SK-OV3 Ovarian cancer): 22 µg/mL
- IC50 (U 373 MG Astrocytoma): 18 µg/mL
- more effective than cis-oxoplatin (SK-OV4 Ovarian cancer; SK-OV4, Na salt versus cis-oxoplatin): about 30%
- IC50 (SK-OV4 Ovarian cancer; Table 2, SK-OV4 Ovarian cancer): 12.8 µg/mL
- efficiency compared with cis-oxoplatin (CaCo-2 Colon; CaCO-2, Na salt versus cis-oxoplatin): less efficient
- IC50 (CaCo-2 Colon; Table 2): 2.22 µg/mL
- efficiency compared with cis-oxoplatin (CRO2B Carcinoid; CRO2B, Na salt versus cis-oxoplatin): less efficient
- IC50 (CRO2B Carcinoid; Table 2): 10.1 µg/mL
- efficiency compared with cis-oxoplatin (Du145 Prostate; DU145, Na salt versus cis-oxoplatin): less efficient
- IC50 (Du145 Prostate; Table 2): 27.0 µg/mL
- more effective than cis-oxoplatin (SW480 Colon; SW480, Na salt versus cis-oxoplatin): about 70%
- IC50 (SW480 Colon; Table 2): 2.5 µg/mL
- more effective than cis-oxoplatin (SIM Sarcoma; SIM, Na salt versus cis-oxoplatin): about 30%
- IC50 (SIM Sarcoma; Table 2, SIM Sarcoma): 11.2 µg/mL
- IC50 values of these cells (mean ± spread) [2]: 9.5 ± 8 µg/mL

- IC50 (BxPC3 Pancreatic cancer; Table 4, BxPC3 Pancreas, formazan test): 30.0 µg/mL
- IC50 (HT29 Colon carcinoma; Table 4, HT29 Colon, formazan test): 8.0 µg/mL
- IC50 (Colo205 Colon carcinoma; Table 4, Colo205 Colon, formazan test): 13.5 µg/mL
- IC50 (T47D Breast cancer; Table 4, T47D Breast, formazan test): 3.6 µg/mL
- IC50 (CaCo-2 Colon; Table 4, formazan test): 0.87 µg/mL
- IC50 (Du145 Prostate; Table 4, formazan test): 14.5 µg/mL
- IC50 (SW480 Colon; Table 4, formazan test): 2.5 µg/mL
- IC50 (MDA-MB-435 Breast): 12.0 µg/mL
- IC50 (BT20 Breast): 3.5 µg/mL
- IC50 (±SEM) mean value for all cell lines (10 cell lines (Table 4)): 9.1 ± 2.8 µg/mL
Compound: cis-diammoniumdichlorodihydroxoplatinum(IV) Calcium Salt [Oxoplatin Ca]
- IC50 (CRO2B Carcinoid; Table 4, formazan test): 2.20 µg/mL
